# Experimental data taken from ChEMBL document CHEMBL1201862, “PubChem BioAssay data set” (2004).
#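 These data come from cells grown in 96-well plates and exposed to compound for 48 hours at five concentrations. Here, GI50 denotes the concentration required for 50% inhibition of growth.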 Active and inactive are the calls of the source. Cut-off read from the data, not from the text of the source: active = GI50 up to about 1.1 µM and inactive = higher.
# Tests used:
# Experiment in all cases: NCI-60 cell line screen, 48 h
# [1] = system: OVCAR-3
# [2] = system: SW-620
# [3] = system: MDA-MB-435
# [4] = system: U-251
# [5] = system: SN12C
# [6] = system: MDA-MB-231
# [7] = system: ACHN
# [8] = system: PC-3
# [9] = system: EKVX
# [10] = system: NCI-H522
# [11] = system: CCRF-CEM
# [12] = system: MOLT-4
# [13] = system: CAKI-1
# [14] = system: K562
# [15] = system: RPMI-8226
# [16] = system: SK-MEL-5
# [17] = system: KM12
# [18] = system: HOP-62
# [19] = system: KM-20L2
# [20] = system: SNB-78
SMILES,GI50 [1],GI50 [2],GI50 [3],GI50 [4],GI50 [5],GI50 [6],GI50 [7],GI50 [8],GI50 [9],GI50 [10],GI50 [11],GI50 [12],GI50 [13],GI50 [14],GI50 [15],GI50 [16],GI50 [17],GI50 [18],GI50 [19],GI50 [20]
CC(=O)Nc1cc(Cl)cc(Cl)c1O,> 100 µM (inactive),> 100 µM (inactive),> 100 µM (inactive),> 100 µM (inactive),> 100 µM (inactive),> 100 µM (inactive),> 100 µM (inactive),> 100 µM (inactive),> 100 µM (inactive),> 100 µM (inactive),> 100 µM (inactive),> 100 µM (inactive),> 100 µM (inactive),> 100 µM (inactive),> 100 µM (inactive),> 100 µM (inactive),> 100 µM (inactive),> 100 µM (inactive),,
CC12CC/C(=N/NC(N)=O)C3C1CCCC32,> 100 µM (inactive),> 100 µM (inactive),,> 100 µM (inactive),> 100 µM (inactive),,> 100 µM (inactive),,,> 100 µM (inactive),> 100 µM (inactive),> 100 µM (inactive),> 100 µM (inactive),> 100 µM (inactive),> 100 µM (inactive),> 100 µM (inactive),> 100 µM (inactive),> 100 µM (inactive),> 100 µM (inactive),
O=C1C(c2ccccc2)=[N+]([O-])c2ccc(Cl)cc21,23.3 µM (inactive),49.2 µM (inactive),,25.9 µM (inactive),24.2 µM (inactive),,23.2 µM (inactive),,16.9 µM (inactive),15.3 µM (inactive),25.9 µM (inactive),23.6 µM (inactive),,32.5 µM (inactive),21.2 µM (inactive),17.3 µM (inactive),30.1 µM (inactive),63.4 µM (inactive),35.1 µM (inactive),
COC(=O)c1ccccc1CC1Cc2cc3c(cc2C1)CCC3,32.7 µM (inactive),53.5 µM (inactive),29.4 µM (inactive),36.5 µM (inactive),40.2 µM (inactive),55.1 µM (inactive),36.6 µM (inactive),39.3 µM (inactive),45.5 µM (inactive),28.6 µM (inactive),20.4 µM (inactive),18.5 µM (inactive),37.9 µM (inactive),23 µM (inactive),17.3 µM (inactive),25.8 µM (inactive),26.5 µM (inactive),41.4 µM (inactive),,
CCOC(=O)CCC(=O)C1c2cccc(O)c2C(=O)c2c(O)cccc21,0.942 µM (active),0.6 µM (active),,0.301 µM (active),1.33 µM (inactive),,1.43 µM (inactive),,,0.408 µM (active),1.1 µM (active),2.31 µM (inactive),2.36 µM (inactive),0.37 µM (active),,0.226 µM (active),0.652 µM (active),1.73 µM (inactive),,2.04 µM (inactive)
COc1ccc2c(c1)C(=O)OCCC2,> 100 µM (inactive),> 100 µM (inactive),> 100 µM (inactive),> 100 µM (inactive),> 100 µM (inactive),> 100 µM (inactive),> 100 µM (inactive),> 100 µM (inactive),> 100 µM (inactive),> 100 µM (inactive),> 100 µM (inactive),> 100 µM (inactive),> 100 µM (inactive),> 100 µM (inactive),> 100 µM (inactive),> 100 µM (inactive),> 100 µM (inactive),> 100 µM (inactive),,
CCCCCCCCCCC/C=C(/C(=O)CCCO[Si](C)(C)C(C)(C)C)C(=O)OC,> 100 µM (inactive),> 100 µM (inactive),> 100 µM (inactive),> 100 µM (inactive),> 100 µM (inactive),> 100 µM (inactive),> 100 µM (inactive),> 100 µM (inactive),> 100 µM (inactive),> 100 µM (inactive),> 100 µM (inactive),> 100 µM (inactive),> 100 µM (inactive),> 100 µM (inactive),> 100 µM (inactive),> 100 µM (inactive),> 100 µM (inactive),> 100 µM (inactive),,
CCSc1nnc(-c2ccccc2)nc1Cc1ccc(OC)cc1,88.9 µM (inactive),> 100 µM (inactive),,79.6 µM (inactive),> 100 µM (inactive),,77.8 µM (inactive),,> 100 µM (inactive),43.3 µM (inactive),69 µM (inactive),49.2 µM (inactive),,71.3 µM (inactive),81.8 µM (inactive),,> 100 µM (inactive),> 100 µM (inactive),> 100 µM (inactive),78 µM (inactive)
